# Data: article PMC9964244, “Effects of Dimerization, Dendrimerization, and Chirality in p-BthTX-I Peptide Analogs on the Antibacterial Activity and Enzymatic Inhibition of the SARS-CoV-2 PL^pro Protein” (Pharmaceutics, 2023)
# Values joined by “and” are separate entries in the source; they are usually repeats but may differ in a detail not shown here. Equal values may be shown once. Bridge positions count the residues as written; N and C are the ends. Square brackets hold non-standard residues; d marks the D form. Ends that are not written are not given here. Peptide text beside a SMILES is read from it. I, II: the chains in the order shown.
# What was measured:
# E. coli ATCC 25922 = test: MIC/MBC, broth microdilution and subculture on CA-MH agar; assay type: cell-based; parameters: key to Act (antibacterial activity): Bc, bactericidal; Bs, bacteriostatic; conditions: for MIC: broth microdilution; for MIC / MBC: triplicate, mode; for MBC: subculture on CA-MH agar, 37 °C, 24 h
# Procedure: (§1) Bacterial isolates from the American Type Culture Collection (ATCC) were obtained from the Collection of Reference Bacteria on Health Surveillance, Oswaldo Cruz Foundation (FIOCRUZ) after phenotypic and molecular quality control and were registered at SISGEN under the number ADB556B. The minimum inhibitory concentration (MIC) was determined as previously described by Santos-Filho et al., 2021 [17], using the broth microdilution method. The MIC was the lowest concentration that inhibited microbial growth. […] MBC was defined as the lowest peptide concentration with no visible growth on the plate. […] The assay was performed in triplicate, and the values represent the mode of the obtained results.
# (§2) Thus, to assess the relevance of the antimicrobial effect of p-Bth analogs, their Minimum Inhibitory Concentration (MIC) and Minimum Bactericidal Concentration (MBC) were analyzed against relevant bacteria. The evaluated strains were the Gram-positives: S. aureus ATCC 25923, S. epidermidis ATCC 35984, E. faecalis ATCC 29212, and E. faecium ATCC […] (Table 1); and the Gram-negatives: K. pneumoniae ATCC 700603, E. coli ATCC 25922, A. baumannii ATCC 19606, and P. aeruginosa ATCC 27853 (Table 2).
# E. faecalis ATCC 29212 = test: as above; assay type: cell-based; parameters: key to Act (antibacterial activity): Bc, bactericidal; Bs, bacteriostatic; conditions: for MIC: broth microdilution; for MIC / MBC: triplicate, mode; for MBC: subculture on CA-MH agar, 37 °C, 24 h
# Procedure: as §1, §2
# [1] = system: S. epidermidis ATCC 35984; test: as above; assay type: cell-based; parameters: key to Act (antibacterial activity): Bc, bactericidal; Bs, bacteriostatic; conditions: for MIC: broth microdilution; for MIC / MBC: triplicate, mode; for MBC: subculture on CA-MH agar, 37 °C, 24 h
# Procedure: as §1, §2
# [2] = system: K. pneumoniae ATCC 700603; test: as above; assay type: cell-based, Klebsiella pneumoniae; parameters: key to Act (antibacterial activity): Bc, bactericidal; Bs, bacteriostatic; conditions: for MIC: broth microdilution; for MIC / MBC: triplicate, mode; for MBC: subculture on CA-MH agar, 37 °C, 24 h
# Procedure: as §1, §2
# P. aeruginosa ATCC 27853 = test: as above; assay type: cell-based, Pseudomonas aeruginosa; parameters: key to Act (antibacterial activity): Bc, bactericidal; Bs, bacteriostatic; conditions: for MIC: broth microdilution; for MIC / MBC: triplicate, mode; for MBC: subculture on CA-MH agar, 37 °C, 24 h
# Procedure: as §1, §2
# [3] = Carboxyfluorescein leakage, vesicle permeabilization; conditions: 95% POPC / 5% POPG vesicles
# Procedure: The permeabilization of lipid vesicles containing carboxyfluorescein was carried out using a spectrofluorometer model Fluorolog-3 FL3-122 from Horiba Jobin Yvon (Newark, NJ, USA) (dimers and tetramers) or in a spectrofluorometer model RF-1501 Shimadzu (Kyoto, Japan) (monomer). For RF-1501, the quantification of the fluorescence intensity was performed every 20 s. Two vesicle compositions were used: (1) 80% 1-palmitoyl-2-oleoyl-sn-glycero-3-phosphoethanolamine (POPE) and 20% 1-palmitoyl-2-oleoyl-sn-glycero- 3-phospho-(10-rac-glycerol) (POPG); and (2) 95% 1-palmitoyl-2-oleoyl-sn-glycero-3-phosphocholine (POPC) and 5% POPG. The percentage of leakage was obtained through the following equation:% release = (Fmeasured − Finitial)/(Ffinal − Finitial) × 100, where Ffinal is the average fluorescence value obtained after the addition of Triton, Finitial is the average of the initial values of the run before the addition of the peptide, and Fmeasured are the fluorescence values obtained at each point of the experiment.
# Here, we evaluated two systems of membrane mimetics, including vesicles with a composition of 80% POPE and 20% POPG, and another with 95% POPC and 5% POPG. The first is widely used as a model of bacterial membranes, specifically of E. coli membrane. Membranes constituting POPC and POPG were used to mimic mammalian membranes due to the presence of choline-containing lipids in animal membranes.
# SARS-CoV-2 = conditions: Vero cells; cited from earlier work
# Source text: In December 2019, the first case of viral infection with a new coronavirus was reported in China, which was later named severe acute respiratory syndrome coronavirus 2 (SARS-CoV-2), and the disease caused by this was named coronavirus-2019 or COVID-19 by the WHO. This disease has taken on great proportions, causing a pandemic scenario and great global concern. Even with the improvements in disease control, there is still a need for new, specific antiviral therapeutic options. As antimicrobial peptides also have antiviral action, the L-dimer, D-dimer and L-tetramer, in addition to ...
# A. baumannii ATCC 19606 = test: MIC/MBC, broth microdilution and subculture on CA-MH agar; assay type: cell-based, Acinetobacter baumannii; parameters: key to Act (antibacterial activity): Bc, bactericidal; Bs, bacteriostatic; conditions: for MIC: broth microdilution; for MIC / MBC: triplicate, mode; for MBC: subculture on CA-MH agar, 37 °C, 24 h
# Procedure: as §1, §2
# SARS-CoV-2 PL^pro [4] = target: T1, SARS-CoV-2 PL^pro (Severe acute respiratory syndrome coronavirus 2, UniProt P0DTD1); conditions: PL^pro from SARS-CoV-2; peptide 10 µM; ref 19 (Freire et al., 2021); cited from earlier work
# T1 construct: made in house
# Procedure: Table 3 PL^pro activity by peptide analogs of p-BThTX-I at the concentration of 10 μM and IC50 values. Representative concentration–response inhibition curves against PL^pro from SARS-CoV-2 are presented in the Supplementary Material (Figure S7). | column: Inhibition (%) at 10 µM; IC50 μM
# S. aureus ATCC 25923 = test: MIC/MBC, broth microdilution and subculture on CA-MH agar; assay type: cell-based, Staphylococcus aureus; conditions: triplicate, mode; for MIC: broth microdilution; for MBC: subculture on CA-MH agar, 37 °C, 24 h
# Procedure: as §1, §2
# E. faecium ATCC 700221 = test: as above; assay type: cell-based, Enterococcus faecium; parameters: key to Act (antibacterial activity): Bc, bactericidal; Bs, bacteriostatic; conditions: for MIC: broth microdilution; for MIC / MBC: triplicate, mode; for MBC: subculture on CA-MH agar, 37 °C, 24 h
# Procedure: as §1, §2
# SARS-CoV-2 PL^pro [5] = target: T1, SARS-CoV-2 PL^pro; test: PL^pro enzymatic inhibition assay; assay type: biochemical; conditions: PL^pro from SARS-CoV-2; for inhibition at 10 µM: peptide 10 µM; for IC50: two independent experiments
# erythrocytes = test: Hemolysis assay; assay type: cell-based; conditions: at 512 µg/mL, 1 h, 37 °C, Triton X-100 1% positive control, duplicate
# Procedure: Peptide hemolytic activity was determined as previously described^15. Peptides were incubated with erythrocytes in the range from 512 μg/mL to 0.06 μg/mL for 1 h at 37 °C. Triton X-100 1% was used as a positive control for hemolysis. Assays were performed in duplicate. The Research Ethics Committee approved this project under the number 90291518.4.0000.5426.
# [6] = MBC/MIC ratio >4 suggests bacteriostatic
Compound,MIC (E. coli ATCC 25922),MBC (E. coli ATCC 25922) [µg/mL],MIC (E. faecalis ATCC 29212),MBC (E. faecalis ATCC 29212) [µg/mL],MIC [1],MBC [1] [µg/mL],MIC [2],MBC [2] [µg/mL],MIC (P. aeruginosa ATCC 27853),MBC (P. aeruginosa ATCC 27853) [µg/mL],MIC (A. baumannii ATCC 19606) [µM],MBC (A. baumannii ATCC 19606) [µg/mL],MIC (S. aureus ATCC 25923),MBC (S. aureus ATCC 25923) [µg/mL],MIC (E. faecium ATCC 700221),MBC (E. faecium ATCC 700221) [µg/mL],inhibition at 10 µM (SARS-CoV-2 PL^pro [5]) [%],IC50 (SARS-CoV-2 PL^pro [5]) [nM],further results
CC(C)C[C@@H](NC(=O)[C@@H](Cc1c[nH]cn1)NC(=O)[C@@H](Cc1ccc(O)cc1)NC(=O)[C@@H](CCCNC(=N)N)NC(=O)[C@@H](Cc1ccc(O)cc1)NC(=O)[C@@H](CCCCN)NC(=O)[C@H](N)CCCCN)C(=O)N[C@H](CCCCN)C(=O)N1CCC[C@@H]1C(=O)N[C@H](Cc1ccccc1)C(=O)NCCCC[C@H](NC(=O)[C@@H](Cc1ccccc1)NC(=O)[C@H]1CCCN1C(=O)[C@@H](CCCCN)NC(=O)[C@@H](CC(C)C)NC(=O)[C@@H](Cc1c[nH]cn1)NC(=O)[C@@H](Cc1ccc(O)cc1)NC(=O)[C@@H](CCCNC(=N)N)NC(=O)[C@@H](Cc1ccc(O)cc1)NC(=O)[C@@H](CCCCN)NC(=O)[C@H](N)CCCCN)C(N)=O [D-dimer] (I: H-[dK][dK][dY][dR][dY][dH][dL][dK][dP][dF]K-NH2 / II: H-[dK][dK][dY][dR][dY][dH][dL][dK][dP][dF]; amide I:11-II:C; N-terminus assumed),32 μg/mL and 11 µM,32,178 µM and 512 μg/mL,512,16 µg/mL,16,64 μg/mL and 22 µM,128,256 μg/mL and 89 µM,512,5,64,256 μg/mL and 89 µM,>512,64 μg/mL and 22 µM,>256,–,–,"Act (antibacterial activity) (E. coli ATCC 25922; [6]): Bc; Act (antibacterial activity) (E. faecalis ATCC 29212; [6]): Bc; Act (antibacterial activity) [1, 6]: Bc; Act (antibacterial activity) [2, 6]: Bc; Act (antibacterial activity) (P. aeruginosa ATCC 27853; [6]): Bc; fluorescein leakage ([3]; concentration not stated in the sentence (10 and 50 µM tested)): 20%; CF leakage ([3]; peptide 50 µM): 20%; percentage inhibition of SARS-CoV-2 infection (SARS-CoV-2): 69%; Act (antibacterial activity) (A. baumannii ATCC 19606; [6]): Bc; Inhibition (%) at 10 µM (SARS-CoV-2 PL^pro [4]): 96.35 ± 0.91%; Act (antibacterial activity) (E. faecium ATCC 700221; [6]): Bs"
CC(C)C[C@H](NC(=O)[C@H](Cc1c[nH]cn1)NC(=O)[C@H](Cc1ccc(O)cc1)NC(=O)[C@H](CCCNC(=N)N)NC(=O)[C@H](Cc1ccc(O)cc1)NC(=O)[C@H](CCCCN)NC(=O)[C@@H](N)CCCCN)C(=O)N[C@@H](CCCCN)C(=O)N1CCC[C@H]1C(=O)N[C@@H](Cc1ccccc1)C(N)=O [L-monomer] (H-KKYRYHLKPF-NH2),>371 µM,>512,>371 µM,>512,>371 µM,>512,>371 µM,>512,–,>512,>371,>512,>371 µM,>512,>371 µM,>512,93.3,2100 ± 100,–
"I: [dK][dK][dY][dR][dY][dH][dL][dK][dP][dF]KK-NH2 / II: [dK][dK][dY][dR][dY][dH][dL][dK][dP][dF]K / III: [dK][dK][dY][dR][dY][dH][dL][dK][dP][dF] / IV: [dK][dK][dY][dR][dY][dH][dL][dK][dP][dF] (amide I:11-IV:C, I:12-II:C, II:11-III:C) [D-tetramer]",5 µM,>128,5 µM,32,2 µM,16,5 µM,32,5 µM,64,5,32,10 µM,64,2 µM,16,94 ± 3,2700 ± 500,hemolysis (erythrocytes): 28%
